In ChEMBL document CHEMBL3745607, “Optimization of allosteric MEK inhibitors. Part 2: Taming the sulfamide group balances compound distribution properties” (Bioorg Med Chem Lett, 2016):

Key:
[1] = Ratio of AUC in brain to plasma in mouse at 5 mg/kg, iv measured for 0 to 3 hrs; format: ADME, organism-based; details: brain and plasma, read-out: BPR
A549 [2] = experiment: Antitumor activity against human A549 cells xenografted in mouse assessed as reduction in tumor area at 1 mg/kg, po qd relative to control; format: functional
Carbonic anhydrase 1 = Carbonic anhydrase 1 (Homo sapiens, UniProt P00915); experiment: Inhibition of human carbonic anhydrase 1
cells [3] = details: Homo sapiens, HCT-116
Description: Antiproliferative activity against human HCT116 cells harboring K-Ras G13D mutation

A-375 = experiment: Antiproliferative activity against human A375 cells harboring BRAF(V600E) mutation after 72 hrs by cell titer glow cell titer glow FCTGI assay; details: A-375, 72 h
[4] = Blood clearance in rat at 0.5 mg/kg, iv or 1 mg/kg, po; format: ADME, organism-based
[5] = Volume of distribution at steady state in rat at 0.5 mg/kg, iv or 1 mg/kg, po; format: ADME, organism-based; details: in vivo, read-out: Vdss
[6] = Half life in rat at 0.5 mg/kg, iv or 1 mg/kg, po; format: ADME, organism-based; details: in vivo
[7] = Oral bioavailability in rat 1 mg/kg; format: ADME, organism-based; details: in vivo
A549 [8] = experiment: Antitumor activity against human A549 cells xenografted in mouse assessed as reduction in tumor area at 2 mg/kg, po qd relative to control; format: functional
HepG2 = experiment: cells; details: Homo sapiens
Description: Antiproliferative activity against human HepG2 cells harboring N-Ras mutation

cells [9] = details: Homo sapiens, COLO 205
Description: Antiproliferative activity against human COLO205 cells harboring BRAF mutation

A549 [10] = experiment: cells; details: Homo sapiens
Description: Antiproliferative activity against human A549 cells harboring K-Ras mutation

MCF7 = experiment: cells; details: Homo sapiens
Description: Antiproliferative activity against human MCF7 cells

Carbonic anhydrase 2 = Carbonic anhydrase 2 (Homo sapiens, UniProt P00918); experiment: Inhibition of human carbonic anhydrase 2
[11] = Half life in rat at 0.5 mg/kg, iv or 5 mg/kg, po; format: ADME, organism-based; details: in vivo
[12] = Oral bioavailability in rat 5 mg/kg; format: ADME, organism-based; details: in vivo

Sequence of Carbonic anhydrase 1 (P00915 whole entry): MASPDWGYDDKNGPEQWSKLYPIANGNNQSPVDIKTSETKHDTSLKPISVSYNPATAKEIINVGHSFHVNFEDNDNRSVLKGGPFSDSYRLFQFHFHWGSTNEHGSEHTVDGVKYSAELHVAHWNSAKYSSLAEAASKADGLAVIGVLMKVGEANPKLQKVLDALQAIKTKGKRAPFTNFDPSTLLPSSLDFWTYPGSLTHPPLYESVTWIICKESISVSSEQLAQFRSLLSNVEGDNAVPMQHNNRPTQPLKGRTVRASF

IC50 (cells [3]) [nM]	IC50 (A-375) [nM]	Structure (SMILES)	further results
180		NC(=O)c1c(Nc2ccc(I)cc2F)cc(F)cc1Oc1cccc(NS(N)(=O)=O)c1	Kp [1]: < 0.02; T/C (A549 [2]): 0.15; IC50 (Carbonic anhydrase 1): 4800 nM
3500		NC(=O)c1c(Nc2ccc(I)cc2F)cc(F)cc1Oc1cccc(CS(N)(=O)=O)c1	
303	11	NC(=O)c1c(Oc2cccc(CS(N)(=O)=O)c2)cc(F)c(F)c1Nc1ccc(I)cc1F	
2950	32	NC(=O)c1c(Oc2ccc(F)c(NS(N)(=O)=O)c2F)cc(F)c(F)c1Nc1ccc(I)cc1F	
	138	NC(=O)c1c(Nc2ccc(I)cc2F)cc(F)cc1Oc1cccc(F)c1NS(N)(=O)=O	
81	4	CCS(=O)(=O)Nc1cccc(Oc2c(F)c(F)cc(Nc3ccc(I)cc3F)c2C(N)=O)c1	
	374	NC(=O)c1c(Nc2ccc(I)cc2F)cc(F)cc1Oc1ccc(F)c(NS(N)(=O)=O)c1F	
1800	88	NCCS(=O)(=O)Nc1cccc(Oc2cc(F)cc(Nc3ccc(I)cc3F)c2C(N)=O)c1	IC50 (Carbonic anhydrase 2): > 10000 nM
	922	COc1cc(NS(N)(=O)=O)cc(Oc2cc(F)cc(Nc3ccc(I)cc3F)c2C(N)=O)c1	
2	0.2	Cc1c(NS(N)(=O)=O)cccc1Oc1cc(F)c(F)c(Nc2ccc(I)cc2F)c1C(N)=O	
287	< 30	CCNS(=O)(=O)Nc1cccc(Oc2cc(F)cc(Nc3ccc(I)cc3F)c2C(N)=O)c1	
42	6	CN(C)S(=O)(=O)Nc1cccc(Oc2cc(F)c(F)c(Nc3ccc(I)cc3F)c2C(N)=O)c1	
2510	90	NC(=O)c1c(Nc2ccc(I)cc2F)cc(F)cc1Oc1ccc(F)c(NS(N)(=O)=O)c1	
	180	Cc1ccc(Oc2cc(F)cc(Nc3ccc(I)cc3F)c2C(N)=O)cc1NS(N)(=O)=O	
	218	Cc1cccc(Oc2cc(F)cc(Nc3ccc(I)cc3F)c2C(N)=O)c1NS(N)(=O)=O	

The remaining lines, values behind:

Structure (SMILES)	IC50 (cells [3]) [nM]	IC50 (A-375) [nM]	further results
NC(=O)c1c(Nc2ccc(I)cc2F)cc(F)cc1Oc1ccc(Cl)c(NS(N)(=O)=O)c1		483	
NC(=O)c1c(Nc2ccc(I)cc2F)cc(F)cc1Oc1ccccc1NS(N)(=O)=O	2400	65	
NC(=O)c1c(Nc2ccc(I)cc2F)cc(F)cc1Oc1ccc2c(c1)N(S(N)(=O)=O)CCO2		339	
CCOc1ccc(Oc2cc(F)cc(Nc3ccc(I)cc3F)c2C(N)=O)cc1NS(N)(=O)=O		977	
NC(=O)c1c(Nc2ccc(I)cc2F)cc(F)cc1Oc1cccc(NS(N)(=O)=O)c1Br	152	8	
NC(=O)c1c(Oc2ccc(F)c(NS(N)(=O)=O)c2)cc(F)c(F)c1Nc1ccc(I)cc1F	277	13	clearance [4]: 0.333 mL/min/kg; Vd [5]: 0.5 L/kg; half-life [6]: 26 h; bioavailability [7]: 84%; Kp [1]: < 0.02; T/C (A549 [8]): 0.21; IC50 (HepG2): 2 nM; IC50 (cells [9]): 42 nM; IC50 (A549 [10]): 314 nM; IC50 (MCF7): > 10000 nM
NC(=O)c1c(Oc2cccc(CNS(N)(=O)=O)c2)cc(F)c(F)c1Nc1ccc(I)cc1F	124	4	clearance [4]: 1.17 mL/min/kg; Vd [5]: 1.9 L/kg; half-life [6]: 32 h; bioavailability [7]: 78%; Kp [1]: < 0.02; T/C (A549 [2]): 0.13; IC50 (HepG2): 5 nM; IC50 (cells [9]): 9 nM; IC50 (A549 [10]): 185 nM; IC50 (MCF7): > 10000 nM
NC(=O)c1c(Oc2cccc(NS(N)(=O)=O)c2)cc(F)c(F)c1Nc1ccc(I)cc1F	50	2	
NC(=O)c1c(Nc2ccc(I)cc2F)cc(F)cc1Oc1cccc(CNS(N)(=O)=O)c1	757	35	
CCS(=O)(=O)Nc1cccc(Oc2cc(F)c(F)c(Nc3ccc(I)cc3F)c2C(N)=O)c1	65	2.4	
Cc1c(NS(N)(=O)=O)cccc1Oc1cc(F)cc(Nc2ccc(I)cc2F)c1C(N)=O	9	2	
NC(=O)c1c(Nc2ccc(I)cc2F)cc(F)cc1Oc1cccc(NS(N)(=O)=O)c1Cl	87	6	
Cc1ccc(NS(N)(=O)=O)cc1Oc1cc(F)cc(Nc2ccc(I)cc2F)c1C(N)=O		570	
CC(NS(N)(=O)=O)c1cccc(Oc2cc(F)cc(Nc3ccc(I)cc3F)c2C(N)=O)c1 (configuration not stated)	731	24	
COc1ccc(Oc2cc(F)cc(Nc3ccc(I)cc3F)c2C(N)=O)cc1NS(N)(=O)=O		731	
Cn1cnc2c(F)c(Nc3ccc(Br)cc3Cl)c(C(=O)NOCCO)cc21 [SELUMETINIB]	3000		half-life [11]: 4.1 h; bioavailability [12]: 24%; IC50 (cells [9]): 69 nM; IC50 (MCF7): > 10000 nM
